This is an account of results in ChEMBL document CHEMBL4483862, “Open-source discovery of chemical leads for next-generation chemoprotective antimalarials” (2018).

The term IC50 denotes the midpoint of a concentration-inhibition curve. Usually IC90 stands for the concentration at which the effect reaches the 90% level.

The subject of the assay is Plasmodium berghei. As to the kind of experiment: Luciferase/luciferin-expressing antifolate-resistant parasites were used to infect a culture of HepG2 cells that were pre-incubated with compounds. Infected hepatocytes emit light due to the luciferase reaction. Assay results are presented as the percent inhibition of light emission compared to control. […]. Format: functional. The note with it: sporozoite; for IC90: read-out: LUCIFERASE INFECTION ASSAY - IC90.

Setting [1] is: read-out: LUCIFERASE INFECTION ASSAY - IC50.

For `Cc1cccc(NC(=O)NC(=O)CSc2ccc(S(=O)(=O)N(C)C)cn2)c1C`, the IC90 was more than 10 µM. Moreover, the IC50 (FFLUC_HILL_SLOPE 22.1, FFLUC_R_SQUARED 0.241, read-out: LUCIFERASE INFECTION ASSAY - IC50) was more than 10 µM.

As for `O=C(/C=C/c1cc([N+](=O)[O-])ccc1OC(F)F)N1CCN(C(c2ccccc2)c2ccccc2)CC1`, the IC90 is more than 10 µM. Moreover, under setting [1], the IC50 was more than 10 µM.

Turning to `O=c1c2ccccc2nc(SCc2coc(-c3cccs3)n2)n1-c1ccc(Cl)cc1`, the IC90 is more than 10 µM. For the same compound, the IC50 under setting [1] was more than 10 µM.

Consider `CCC1(c2ccc(F)cc2)NC(=O)N(CC(=O)Nc2ccc(-c3nc4ccc(C)cc4s3)cc2)C1=O` (configuration not stated), for which the IC90 was more than 10 µM. The IC50 under setting [1] stood at 9.87 µM.

With `NC(=O)c1ccc(-c2cc(-c3cccc(C(F)(F)F)c3)cnc2N)cc1`, the IC90 was 5.02 µM. Moreover, under “PBLUC_HILL_SLOPE 80.6, PBLUC_R_SQUARED 0.104, read-out: LUCIFERASE INFECTION ASSAY - IC50”, the IC50 is 4.88 µM.

With `COc1ccc(N2CCN(c3nc(Nc4cc(C)nn4-c4ccccc4)c(Cl)cc3Cl)CC2)cc1`, the IC90 is more than 10 µM. Further, the IC50 (HEPG2TOX_HILL_SLOPE 10.1, 8.63, HEPG2TOX_R_SQUARED 0.279, 0.753, PBLUC_HILL_SLOPE 15.1, PBLUC_R_SQUARED 0.229, read-out: LUCIFERASE INFECTION ASSAY - IC50) turned out to be 9.89 µM.

Consider `COc1cccc(-c2[nH]nc3ccnc(-c4ccc(C(C)C)cc4)c23)c1`, for which the IC90 is more than 10 µM. Besides, the IC50 (FFLUC_HILL_SLOPE 13.2, FFLUC_R_SQUARED 0.418, read-out: LUCIFERASE INFECTION ASSAY - IC50) is more than 10 µM.

`CCN1CCc2nc(NC(=O)c3ccccc3Nc3ccc(F)cc3)sc2C1`: the IC90 came out at 8.04 µM. For the same compound, the IC50 (PBLUC_HILL_SLOPE 2.71, PBLUC_R_SQUARED 0.663, read-out: LUCIFERASE INFECTION ASSAY - IC50) turned out to be 3.58 µM.

`CCOc1ncccc1C(=O)NCC(c1ccc(OC)cc1)N1CCCCC1` (configuration not stated): the IC90 was more than 10 µM. Besides, the IC50 under setting [1] was more than 10 µM.

In the case of `Cc1ccc(S(=O)(=O)Oc2c(C(C)C)cc(Nc3ccccc3)cc2C(C)C)cc1`, the concentration for an effect of 90% (IC90) was more than 10 µM. Also, the IC50 (HEPG2TOX_HILL_SLOPE 0.494, HEPG2TOX_R_SQUARED 0.437, PBLUC_HILL_SLOPE 0.599, PBLUC_R_SQUARED 0.52, read-out: LUCIFERASE INFECTION ASSAY - IC50) is 2.17 µM.

Turning to `COCC(C)n1c(C)cc(C(=O)COC(=O)c2cccn2C)c1C` (configuration not stated), the IC90 is 6.18 µM. In addition, the IC50 under setting [1] was found to be 1.82 µM.

`Cc1cc(=O)n2nc(COC(=O)c3ccccc3Nc3ccccc3)sc2n1`: the IC90 was more than 10 µM. In addition, under setting [1], the IC50 is more than 10 µM.

Consider `O=C(Cn1cccc(C(F)(F)F)c1=O)NC(Cc1ccccc1)c1ccccc1` (configuration not stated), for which the IC90 was more than 10 µM. Under setting [1], the IC50 was more than 10 µM.

Turning to `CC(C)c1ccccc1-n1c(SCC(=O)N2CCc3ccccc3C2)nc2ccccc2c1=O`, the IC90 is more than 10 µM. For the same compound, the IC50 (FFLUC_HILL_SLOPE 14.4, FFLUC_R_SQUARED 0.575, read-out: LUCIFERASE INFECTION ASSAY - IC50) was more than 10 µM.

Consider `CC(=O)c1c[nH]c(C(=O)Nc2nc(C)c(-c3ccccn3)s2)c1`, for which the IC90 was more than 10 µM. For the same compound, the half-maximal inhibitory concentration (IC50) under setting [1] is more than 10 µM.

Take `c1ccc(-c2cn3nc(NCc4ccccc4CN4CCOCC4)sc3n2)cc1`: the IC90 is more than 10 µM. Also, the IC50 under setting [1] is 1.28 µM.

For the compound `Cc1cc(C)nc(-n2nc(C)cc2NC(=O)CN2CCc3ccccc3C2)n1`, the IC90 is more than 10 µM. Moreover, the IC50 (HEPG2TOX_HILL_SLOPE 7.28, HEPG2TOX_R_SQUARED 0.662, read-out: LUCIFERASE INFECTION ASSAY - IC50) was more than 10 µM.

On to `CCOc1cc2c(cc1OCC)CN(c1cnn(-c3nc4ccccc4[nH]3)c(=O)c1Cl)CC2`, for which the IC90 was determined as 2.69 µM. Besides, the IC50 (HEPG2TOX_HILL_SLOPE 1.71, HEPG2TOX_R_SQUARED 0.884, PBLUC_HILL_SLOPE 7.85, 14.7, PBLUC_R_SQUARED 0.450, 0.666, read-out: LUCIFERASE INFECTION ASSAY - IC50) stood at 2.1 µM.

With `CSCCC(NC(=O)c1ccc([N+](=O)[O-])cc1Cl)C(=O)OCC(=O)Nc1ccc(OC(F)(F)F)cc1` (configuration not stated), the IC90 is more than 10 µM. Also, the IC50 under setting [1] is more than 10 µM.

Regarding `O=C(NC1CCN(Cc2ccccc2)CC1)c1oc2ccccc2c1COc1ccccc1`, the IC90 is more than 10 µM. Besides, for the setting “PBLUC_HILL_SLOPE 25.1, PBLUC_R_SQUARED 0.225, read-out: LUCIFERASE INFECTION ASSAY - IC50”, the IC50 was more than 10 µM.

In the case of `C[C@]12CC[C@H](O)C[C@H]1CCC1C2CC[C@]2(C)[C@@H](C3=CC(=O)OC3)CC[C@]12O` (some centres not stated), the IC90 was determined as 0.225 µM. Moreover, under “HEPG2TOX_HILL_SLOPE 2.19, HEPG2TOX_R_SQUARED 0.915, PBLUC_HILL_SLOPE 1.64, PBLUC_R_SQUARED 0.798, read-out: LUCIFERASE INFECTION ASSAY - IC50”, the IC50 is 0.0591 µM.

On to `Cc1ccc(C(=O)Nc2nc3ccccc3[nH]2)cc1NC(=O)c1ccco1`, for which the IC90 is more than 10 µM. Where the note is “PBLUC_HILL_SLOPE 2.56, PBLUC_R_SQUARED 0.483, read-out: LUCIFERASE INFECTION ASSAY - IC50”, the IC50 worked out at 4.68 µM.

With `CCCCNCCCCOc1ccc(C)cc1C(C)(C)C`, the IC90 was more than 10 µM. Besides, where the note is “PBLUC_HILL_SLOPE 18.2, PBLUC_R_SQUARED 0.163, read-out: LUCIFERASE INFECTION ASSAY - IC50”, the IC50 was determined as 8.89 µM.

Turning to `O=C(Nc1ccccc1C(=O)Nc1nnc(C(F)(F)F)s1)c1ccccc1`, the IC90 was determined as 1.89 µM. Besides, the IC50 (HEPG2TOX_HILL_SLOPE 6.74, HEPG2TOX_R_SQUARED 0.749, PBLUC_HILL_SLOPE 2.08, PBLUC_R_SQUARED 0.449, read-out: LUCIFERASE INFECTION ASSAY - IC50) is 0.658 µM.

Turning to `CC1CCN(S(=O)(=O)c2ccc(C(=O)Nc3ncccc3O)cc2)CC1`, the IC90 was more than 10 µM. For the same compound, under “PBLUC_HILL_SLOPE 2.15, PBLUC_R_SQUARED 0.503, read-out: LUCIFERASE INFECTION ASSAY - IC50”, the IC50 is 4.81 µM.

As for `O=C(c1cc(C(=O)N2CCCC2)c2nc3scc(-c4ccccc4)c3c(=O)n2c1)c1cc(F)ccc1O`, the IC90 was more than 10 µM. Also, the IC50 (FFLUC_HILL_SLOPE 12.4, FFLUC_R_SQUARED 0.51, HEPG2TOX_HILL_SLOPE 7.25, HEPG2TOX_R_SQUARED 0.253, PBLUC_HILL_SLOPE 65.5, PBLUC_R_SQUARED 0.659, read-out: LUCIFERASE INFECTION ASSAY - IC50) was 9.78 µM.

As to `Cc1cc2nnc(-c3ccc(C(F)(F)F)cc3)n2[nH]1`, the IC90 is more than 12.4 µM. Also, the IC50 (FFLUC_HILL_SLOPE 9.36, FFLUC_R_SQUARED 0.07, PBLUC_HILL_SLOPE 1.33, PBLUC_R_SQUARED 0.805, read-out: LUCIFERASE INFECTION ASSAY - IC50) came to 3.1 µM.

Regarding `O=C(/C=C/c1cccnc1)c1ccc(S(=O)(=O)NCc2ccccc2Cl)cc1`, the IC90 was determined as 5.93 µM. Under “FFLUC_HILL_SLOPE 11, FFLUC_R_SQUARED 0.373, HEPG2TOX_HILL_SLOPE 8.76, HEPG2TOX_R_SQUARED 0.66, PBLUC_HILL_SLOPE 5.1, PBLUC_R_SQUARED 0.695, read-out: LUCIFERASE INFECTION ASSAY - IC50”, the IC50 was found to be 3.85 µM.

As to `Cc1cccc2sc(N(Cc3ccccc3)C(=O)CSC(c3ccccc3)c3ccccc3)nc12`, the IC90 was more than 10 µM. Moreover, the IC50 under setting [1] is more than 10 µM.

Regarding `CC1=C(C(=O)Nc2cc(C)on2)C(c2csc(-c3ccc(Cl)cc3)n2)NC(=S)N1C1CC1` (configuration not stated), the IC90 was determined as 9.79 µM. Moreover, the IC50 (FFLUC_HILL_SLOPE 2.07, FFLUC_R_SQUARED 0.469, PBLUC_HILL_SLOPE 2.7, PBLUC_R_SQUARED 0.533, read-out: LUCIFERASE INFECTION ASSAY - IC50) is 4.34 µM.

Take `O=[N+]([O-])c1ccc(NN=C2CCSC2)c(S(=O)(=O)Nc2ccc(Cl)cc2)c1`: the IC90 is more than 10 µM. Besides, the IC50 under setting [1] is more than 10 µM.

Turning to `CCOc1ccc(/C=N/NC(=O)c2cc3c(s2)CCCC3)c(O)c1`, the IC90 is more than 10 µM. For the same compound, for the setting “HEPG2TOX_HILL_SLOPE 3.02, HEPG2TOX_R_SQUARED 0.79, PBLUC_HILL_SLOPE 4.8, PBLUC_R_SQUARED 0.349, read-out: LUCIFERASE INFECTION ASSAY - IC50”, the IC50 was determined as 6.97 µM.

On to `Cn1ccc2cc(-c3cn4c(-c5cccc(F)c5)cnc4cn3)ccc21`, for which the IC90 was determined as 2.18 µM. Also, the IC50 (HEPG2TOX_HILL_SLOPE 1.6, HEPG2TOX_R_SQUARED 0.918, PBLUC_HILL_SLOPE 3.4, PBLUC_R_SQUARED 0.713, read-out: LUCIFERASE INFECTION ASSAY - IC50) turned out to be 1.14 µM.

Regarding `O=C1/C(=C/c2ccc(-n3nncc3C34CC5CC(CC(C5)C3)C4)cc2)CCC/C1=C\c1ccc(-n2nncc2C23CC4CC(CC(C4)C2)C3)cc1`, the IC90 amounted to 4.22 µM. The IC50 (FFLUC_HILL_SLOPE 2.2, FFLUC_R_SQUARED 0.872, HEPG2TOX_HILL_SLOPE 3.7, HEPG2TOX_R_SQUARED 0.967, PBLUC_HILL_SLOPE 5.71, PBLUC_R_SQUARED 0.867, read-out: LUCIFERASE INFECTION ASSAY - IC50) was found to be 2.87 µM.

As to `COc1ccc(CCC(=O)N(c2nc(-c3ccc(C)cc3)cs2)c2cc(C)ccc2C)cc1OC`, the IC90 was found to be 4.21 µM. Besides, the IC50 (HEPG2TOX_HILL_SLOPE 2.48, HEPG2TOX_R_SQUARED 0.955, PBLUC_HILL_SLOPE 14.1, PBLUC_R_SQUARED 0.228, read-out: LUCIFERASE INFECTION ASSAY - IC50) amounted to 3.6 µM.

Turning to `Cc1nn(-c2cccc(Cl)c2)c2nc(-c3ccccc3)c(-c3nc4ccccc4s3)c(-c3cccnc3)c12`, the IC90 was more than 10 µM. In addition, the IC50 (HEPG2TOX_HILL_SLOPE 11.2, HEPG2TOX_R_SQUARED 0.958, read-out: LUCIFERASE INFECTION ASSAY - IC50) was more than 10 µM.
